Legend:
Assay in all cases: KINOMEscan competition binding
[1] = biological target: DAPK3 (human) (UniProt O43293); settings: compound 10.0 µM
[2] = biological target: BLK (human) (UniProt P51451); settings: compound 10.0 µM
[3] = biological target: MAP2K1 (human) (UniProt Q02750); settings: compound 10.0 µM
[4] = biological target: BTK (human) (UniProt Q06187); settings: compound 10.0 µM
[5] = tested on: EGFR (human), P00533 [752-759 del]; settings: compound 10.0 µM
[6] = biological target: DMPK (human) (UniProt Q09013); settings: compound 10.0 µM
[7] = tested on: PIK3CA (human), P42336 [E545K]; settings: compound 10.0 µM
[8] = biological target: CSNK1D (human) (UniProt P48730); settings: compound 10.0 µM
[9] = biological target: ULK1 (human) (UniProt O75385); settings: compound 10.0 µM
[10] = biological target: RPS6KA2 KD1 (human) (UniProt Q15349); settings: compound 10.0 µM
[11] = biological target: MST1R (human) (UniProt Q04912); settings: compound 10.0 µM
[12] = biological target: PAK7 (human) (UniProt Q9P286); settings: compound 10.0 µM
[13] = biological target: INSR (human) (UniProt P06213); settings: compound 10.0 µM
[14] = biological target: CDK19 (human) (UniProt Q9BWU1); settings: compound 10.0 µM
[15] = biological target: PRKACA (human) (UniProt P17612); settings: compound 10.0 µM
[16] = biological target: ERBB4 (human) (UniProt Q15303); settings: compound 10.0 µM
[17] = biological target: MAP4K5 (human) (UniProt Q9Y4K4); settings: compound 10.0 µM
[18] = biological target: EPHA4 (human) (UniProt P54764); settings: compound 10.0 µM
[19] = biological target: PIP5K1A (human) (UniProt Q99755); settings: compound 10.0 µM
[20] = biological target: NUAK2 (human) (UniProt Q9H093); settings: compound 10.0 µM
[21] = biological target: CLK1 (human) (UniProt P49759); settings: compound 10.0 µM
[22] = biological target: MAPK1 (human) (UniProt P28482)
[23] = biological target: NEK6 (human) (UniProt Q9HC98); settings: compound 10.0 µM
[24] = biological target: LATS2 (human) (UniProt Q9NRM7); settings: compound 10.0 µM
[25] = biological target: IKBKB (human) (UniProt O14920); settings: compound 10.0 µM
[26] = biological target: NEK9 (human) (UniProt Q8TD19); settings: compound 10.0 µM
[27] = biological target: SYK (human) (UniProt P43405); settings: compound 10.0 µM
[28] = tested on: EGFR (human), P00533 [L861Q]; settings: compound 10.0 µM
[29] = biological target: CSNK1G3 (human) (UniProt Q9Y6M4); settings: compound 10.0 µM
[30] = biological target: CAMK4 (human) (UniProt Q16566); settings: compound 10.0 µM
[31] = biological target: MST4 (human) (UniProt Q9P289); settings: compound 10.0 µM
[32] = biological target: PAK2 (human) (UniProt Q13177); settings: compound 10.0 µM
[33] = biological target: MARK4 (human) (UniProt Q96L34); settings: compound 10.0 µM
[34] = biological target: FGFR4 (human) (UniProt P22455); settings: compound 10.0 µM
[35] = biological target: CDK8 (human) (UniProt P49336); settings: compound 10.0 µM
[36] = biological target: TESK1 (human) (UniProt Q15569); settings: compound 10.0 µM
[37] = biological target: MAP3K12 (human) (UniProt Q12852); settings: compound 10.0 µM
[38] = biological target: MAPK15 (human) (UniProt Q8TD08); settings: compound 10.0 µM
[39] = biological target: IKBKE (human) (UniProt Q14164); settings: compound 10.0 µM
[40] = tested on: RET (human), P07949 [V804L]; settings: compound 10.0 µM
[41] = biological target: PRKCE (human) (UniProt Q02156); settings: compound 10.0 µM
[42] = biological target: FES (human) (UniProt P07332)
Sequence of FES (human) (P07332 whole entry, looked up): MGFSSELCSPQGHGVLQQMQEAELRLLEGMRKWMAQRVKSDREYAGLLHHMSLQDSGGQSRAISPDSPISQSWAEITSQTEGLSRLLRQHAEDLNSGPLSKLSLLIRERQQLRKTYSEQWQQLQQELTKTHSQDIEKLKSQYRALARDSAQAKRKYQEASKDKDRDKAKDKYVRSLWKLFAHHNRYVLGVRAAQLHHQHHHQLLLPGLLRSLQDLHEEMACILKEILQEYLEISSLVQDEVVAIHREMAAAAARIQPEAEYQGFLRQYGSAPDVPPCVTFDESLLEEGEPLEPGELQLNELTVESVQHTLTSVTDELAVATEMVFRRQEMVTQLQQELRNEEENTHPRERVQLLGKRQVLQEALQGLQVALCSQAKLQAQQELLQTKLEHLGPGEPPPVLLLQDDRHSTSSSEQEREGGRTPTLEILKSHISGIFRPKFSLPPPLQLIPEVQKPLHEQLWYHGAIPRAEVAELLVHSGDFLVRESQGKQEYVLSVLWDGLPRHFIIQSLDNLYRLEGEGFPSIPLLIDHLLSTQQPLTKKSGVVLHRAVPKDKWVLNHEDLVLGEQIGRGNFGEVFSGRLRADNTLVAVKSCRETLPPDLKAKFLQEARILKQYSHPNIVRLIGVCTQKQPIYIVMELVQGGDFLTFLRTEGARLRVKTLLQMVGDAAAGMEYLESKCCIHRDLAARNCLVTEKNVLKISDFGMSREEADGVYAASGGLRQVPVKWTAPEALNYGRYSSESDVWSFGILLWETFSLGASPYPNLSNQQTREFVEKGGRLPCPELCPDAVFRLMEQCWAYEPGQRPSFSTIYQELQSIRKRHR

Sequence of MAPK1 (human) (P28482 whole entry, looked up): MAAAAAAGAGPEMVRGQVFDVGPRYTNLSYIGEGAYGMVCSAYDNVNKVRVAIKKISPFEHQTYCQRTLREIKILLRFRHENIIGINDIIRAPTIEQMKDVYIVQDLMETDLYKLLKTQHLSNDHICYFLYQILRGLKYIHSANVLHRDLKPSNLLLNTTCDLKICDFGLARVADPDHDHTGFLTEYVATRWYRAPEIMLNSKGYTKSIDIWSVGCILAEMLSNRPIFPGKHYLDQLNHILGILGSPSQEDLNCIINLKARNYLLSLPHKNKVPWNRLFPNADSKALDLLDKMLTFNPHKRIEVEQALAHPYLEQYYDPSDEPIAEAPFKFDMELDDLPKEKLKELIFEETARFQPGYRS
Sequence of TESK1 (human) (Q15569 whole entry, looked up): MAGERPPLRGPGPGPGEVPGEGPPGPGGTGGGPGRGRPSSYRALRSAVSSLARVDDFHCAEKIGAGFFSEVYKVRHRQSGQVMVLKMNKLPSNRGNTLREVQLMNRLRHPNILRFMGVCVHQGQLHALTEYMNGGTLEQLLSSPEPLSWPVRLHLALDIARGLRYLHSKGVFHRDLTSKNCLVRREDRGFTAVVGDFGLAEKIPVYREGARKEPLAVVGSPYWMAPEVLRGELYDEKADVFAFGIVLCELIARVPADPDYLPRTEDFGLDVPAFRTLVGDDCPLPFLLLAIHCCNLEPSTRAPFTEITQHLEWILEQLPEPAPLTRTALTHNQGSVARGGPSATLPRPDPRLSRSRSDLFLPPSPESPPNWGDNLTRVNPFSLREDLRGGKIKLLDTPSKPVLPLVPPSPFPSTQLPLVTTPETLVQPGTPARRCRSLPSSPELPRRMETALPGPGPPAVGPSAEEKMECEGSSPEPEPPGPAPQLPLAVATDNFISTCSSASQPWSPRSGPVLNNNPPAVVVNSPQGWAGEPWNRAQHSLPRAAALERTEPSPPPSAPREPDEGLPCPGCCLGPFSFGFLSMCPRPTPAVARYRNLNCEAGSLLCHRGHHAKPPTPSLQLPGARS
Sequence of ULK1 (human) (O75385 whole entry, looked up): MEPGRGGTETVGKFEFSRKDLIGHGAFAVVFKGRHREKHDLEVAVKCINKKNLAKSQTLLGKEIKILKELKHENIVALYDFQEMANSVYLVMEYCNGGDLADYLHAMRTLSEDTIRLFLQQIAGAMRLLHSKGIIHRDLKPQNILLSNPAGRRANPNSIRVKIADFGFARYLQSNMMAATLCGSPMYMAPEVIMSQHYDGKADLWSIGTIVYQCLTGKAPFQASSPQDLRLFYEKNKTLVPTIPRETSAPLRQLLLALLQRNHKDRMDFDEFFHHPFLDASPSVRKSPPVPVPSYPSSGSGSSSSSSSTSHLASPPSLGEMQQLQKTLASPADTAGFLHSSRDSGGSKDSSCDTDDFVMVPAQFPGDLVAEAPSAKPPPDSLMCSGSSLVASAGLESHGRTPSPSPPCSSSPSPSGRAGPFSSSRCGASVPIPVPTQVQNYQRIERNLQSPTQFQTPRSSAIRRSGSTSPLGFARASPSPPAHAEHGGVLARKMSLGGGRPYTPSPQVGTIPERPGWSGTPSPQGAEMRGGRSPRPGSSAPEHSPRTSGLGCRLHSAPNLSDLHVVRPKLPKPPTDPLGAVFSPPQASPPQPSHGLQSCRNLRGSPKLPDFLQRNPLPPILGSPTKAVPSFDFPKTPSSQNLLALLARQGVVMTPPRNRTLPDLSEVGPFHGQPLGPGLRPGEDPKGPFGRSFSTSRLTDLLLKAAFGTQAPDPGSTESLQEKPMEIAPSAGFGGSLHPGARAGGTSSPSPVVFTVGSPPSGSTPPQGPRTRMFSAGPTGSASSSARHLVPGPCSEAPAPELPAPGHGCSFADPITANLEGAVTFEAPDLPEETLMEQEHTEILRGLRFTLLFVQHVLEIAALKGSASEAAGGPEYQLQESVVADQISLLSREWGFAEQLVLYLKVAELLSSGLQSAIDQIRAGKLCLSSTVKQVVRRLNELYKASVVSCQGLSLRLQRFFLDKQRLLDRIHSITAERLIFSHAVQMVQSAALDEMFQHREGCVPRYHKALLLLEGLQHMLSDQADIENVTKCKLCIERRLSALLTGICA
Sequence of CAMK4 (human) (Q16566 whole entry, looked up): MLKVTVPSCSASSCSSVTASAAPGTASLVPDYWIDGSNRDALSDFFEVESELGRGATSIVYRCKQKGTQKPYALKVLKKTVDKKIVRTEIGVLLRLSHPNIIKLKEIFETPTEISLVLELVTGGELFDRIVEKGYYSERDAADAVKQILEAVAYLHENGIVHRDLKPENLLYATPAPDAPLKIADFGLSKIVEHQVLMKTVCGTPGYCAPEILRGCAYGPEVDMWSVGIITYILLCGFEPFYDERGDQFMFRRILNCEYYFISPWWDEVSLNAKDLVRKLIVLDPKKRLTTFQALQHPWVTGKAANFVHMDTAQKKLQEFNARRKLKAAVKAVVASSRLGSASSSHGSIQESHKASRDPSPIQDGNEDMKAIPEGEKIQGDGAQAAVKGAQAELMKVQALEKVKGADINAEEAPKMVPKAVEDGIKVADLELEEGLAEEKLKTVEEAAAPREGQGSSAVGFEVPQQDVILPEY
Sequence of CSNK1D (human) (P48730 whole entry, looked up): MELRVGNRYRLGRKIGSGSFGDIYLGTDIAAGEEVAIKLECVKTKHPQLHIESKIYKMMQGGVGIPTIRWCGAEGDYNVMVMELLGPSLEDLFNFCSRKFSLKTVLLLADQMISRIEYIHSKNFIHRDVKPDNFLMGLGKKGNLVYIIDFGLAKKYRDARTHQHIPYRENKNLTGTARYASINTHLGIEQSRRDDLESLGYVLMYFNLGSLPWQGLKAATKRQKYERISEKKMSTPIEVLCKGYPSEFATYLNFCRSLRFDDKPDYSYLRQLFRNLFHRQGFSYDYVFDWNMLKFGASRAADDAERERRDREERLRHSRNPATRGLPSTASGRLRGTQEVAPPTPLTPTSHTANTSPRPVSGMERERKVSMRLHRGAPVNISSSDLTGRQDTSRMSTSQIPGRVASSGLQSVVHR
Sequence of CDK8 (human) (P49336 whole entry, looked up): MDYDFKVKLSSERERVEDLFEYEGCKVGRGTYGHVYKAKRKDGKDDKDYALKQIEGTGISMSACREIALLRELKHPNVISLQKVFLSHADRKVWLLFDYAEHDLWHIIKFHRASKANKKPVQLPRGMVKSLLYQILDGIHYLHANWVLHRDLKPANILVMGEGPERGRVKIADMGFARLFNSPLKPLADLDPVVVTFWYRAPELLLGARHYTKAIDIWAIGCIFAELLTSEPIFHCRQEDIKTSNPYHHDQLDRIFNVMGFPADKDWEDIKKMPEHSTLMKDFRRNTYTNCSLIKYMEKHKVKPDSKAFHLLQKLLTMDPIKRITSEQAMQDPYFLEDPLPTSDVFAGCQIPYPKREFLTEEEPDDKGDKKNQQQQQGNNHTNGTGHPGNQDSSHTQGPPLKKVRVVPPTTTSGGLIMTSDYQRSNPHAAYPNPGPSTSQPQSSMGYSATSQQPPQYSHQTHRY
Sequence of PIP5K1A (human) (Q99755 whole entry, looked up): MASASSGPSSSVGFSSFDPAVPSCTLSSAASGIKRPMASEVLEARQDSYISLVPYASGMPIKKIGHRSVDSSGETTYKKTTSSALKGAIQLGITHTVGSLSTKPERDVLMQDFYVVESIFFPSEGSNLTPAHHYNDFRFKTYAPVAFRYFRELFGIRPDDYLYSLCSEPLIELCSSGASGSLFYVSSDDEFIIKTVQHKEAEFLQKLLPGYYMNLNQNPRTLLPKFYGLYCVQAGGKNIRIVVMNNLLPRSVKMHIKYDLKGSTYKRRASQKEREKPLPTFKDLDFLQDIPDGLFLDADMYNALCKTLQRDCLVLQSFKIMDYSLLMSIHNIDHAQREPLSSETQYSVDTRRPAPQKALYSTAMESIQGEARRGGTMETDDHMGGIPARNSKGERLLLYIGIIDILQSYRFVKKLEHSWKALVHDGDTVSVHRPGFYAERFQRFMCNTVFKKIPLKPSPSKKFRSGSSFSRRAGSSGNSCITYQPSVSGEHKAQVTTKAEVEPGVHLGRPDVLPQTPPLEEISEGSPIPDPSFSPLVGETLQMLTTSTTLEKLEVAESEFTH

In the case of `CCOc1cc(N2CCC(N3CCCCC3)CC2)ccc1Nc1nc(Nc2ccccc2S(=O)(=O)C(C)C)c2cn[nH]c2n1`, the kinase still bound, per cent of control [1] is reported as 83%, the kinase still bound, per cent of control [2] is reported as 100% and the kinase still bound, per cent of control [3] is reported as 100%. The kinase still bound, per cent of control [4] was 32%, the kinase still bound, per cent of control [5] was 49% and the kinase still bound, per cent of control [6] was 70%. It also gave a kinase still bound, per cent of control [7] of 100%, a kinase still bound, per cent of control [8] of 92% and a kinase still bound, per cent of control [9] of 1.8%. For the same molecule, the kinase still bound, per cent of control [10] was 77%, the kinase still bound, per cent of control [11] was 100% and the kinase still bound, per cent of control [12] was 80%. The kinase still bound, per cent of control [13] was 0.3%, the kinase still bound, per cent of control [14] was 100% and the kinase still bound, per cent of control [15] was 100%. It also gave a kinase still bound, per cent of control [16] of 7.8%, a kinase still bound, per cent of control [17] of 58% and a kinase still bound, per cent of control [18] of 100%. It also gave a kinase still bound, per cent of control [19] of 39%, a kinase still bound, per cent of control [20] of 27% and a kinase still bound, per cent of control [21] of 0.4%. For the same molecule, the IC50 [22] was 6.5 mM, the kinase still bound, per cent of control ([22]; compound 10.0 µM) was 0.7% and the kinase still bound, per cent of control [23] was 100%. It also gave a kinase still bound, per cent of control [24] of 88%, a kinase still bound, per cent of control [25] of 100% and a kinase still bound, per cent of control [26] of 100%. It also gave a kinase still bound, per cent of control [27] of 100%, a kinase still bound, per cent of control [28] of 7.7% and a kinase still bound, per cent of control [29] of 50%. It also gave a kinase still bound, per cent of control [30] of 1%, a kinase still bound, per cent of control [31] of 100% and a kinase still bound, per cent of control [32] of 82%. It also gave a kinase still bound, per cent of control [33] of 71%, a kinase still bound, per cent of control [34] of 100% and a kinase still bound, per cent of control [35] of 100%. It also gave a kinase still bound, per cent of control [36] of 100%, a kinase still bound, per cent of control [37] of 100% and a kinase still bound, per cent of control [38] of 100%. The kinase still bound, per cent of control [39] was 100%, the kinase still bound, per cent of control [40] was 82% and the kinase still bound, per cent of control [41] was 62%. It also gave an IC50 [42] of 0.058 mM and a kinase still bound, per cent of control ([42]; compound 10.0 µM) of 3.6%.
